Laboratory results as given in patent publication US20050019854A1, “Novel method for screening inhibitors of the linkage between the neuronal nitric oxide synthase associated protein and the protein inhibiting neuronal nitric oxide synthase” (priority 2001, published 2005).
Ends that are not written are not given here.

How the values were obtained:
[1] = test system: islets of Langerhans of Zucker (fa/fa) rats; assay: Glucose-induced insulin secretion in isolated islets of Zucker (fa/fa) rats (Example 4); type: cell-based, rat; details: 2 g/L glucose; for reduction of the insulin response: 1 hour
Experimental: The islets of Langerhans of Zucker (fa/fa) rats are isolated using the collagenase digestion technique of Lacy et al. (Diabetes, 1967). After isolation, the islets are stabilized in Krebs-Ringer containing 0.75 g/L glucose for 45 minutes at 37° C. Groups of three islets are then incubated in Krebs-Ringer with 2 g/L glucose containing increasing concentrations of the molecule C24H18N4O5S (20-100 μM) for 1 hour at 37° C. The liquid supernatant is then recovered and insulin secretion measured by radioimmunology (see FIG. 8).

[2] = molecular target: T1, binding of the PIN to the nNOS (Rattus norvegicus, UniProt P63170); assay: ELISA: inhibition of the binding of GST-PIN to immobilized nNOS (Example 2, first method); details: peptide 50 μg/ml
T1 construct: catalogue number not given; host or cells: PIN: E. coli BL21 (DE3)

[3] = molecular target: T1, binding of the PIN to the nNOS; assay: Surface plasmon resonance analysis of inhibition of PIN binding to immobilized nNOS (Example 3); details: for inhibition of the binding of the PIN to the nNOS: SPR
[4] = molecular target: T2, PIN (Rattus norvegicus, UniProt P63170); assay: Surface plasmon resonance analysis of PIN binding to immobilized nNOS peptides (Example 1)
T2 construct: GST (N, cleaved yes); made in house; host or cells: E. coli BL21 (DE3), vector pGEX-2T

[5] = molecular target: T3, protein inhibitor of neuronal nitric oxide synthase (PIN), produced by thrombin digestion of GST-PIN (rat, UniProt P63170 1-89); assay: SPR competition, PIN preincubated with peptide, nNOS immobilized
T3 construct: Released from GST-PIN (vector pGEX-2T) by thrombin digestion; also called PIN protein

[6] = molecular target: T4, GST-PIN (PIN with a glutathione S-transferase tag in the N-terminal position) (rat, UniProt P63170 1-89); assay: competition ELISA, GST-PIN preincubated with peptide, nNOS immobilized
T4 construct: Produced in E. coli BL21(DE3) and purified on glutathione sepharose; The thrombin linker between GST and PIN is not described; also called GST-tagged PIN; not shown: Glutathione S-transferase tag of vector pGEX-2T (Pharmacia), N-terminal

[7] = molecular target: T4, GST-PIN (PIN with a glutathione …); assay: competition ELISA, GST-PIN preincubated with 50 µg/ml peptide, nNOS immobilized
[8] = molecular target: T3, protein inhibitor of neuronal nitric …; assay: SPR (BIAcore 2000), peptide immobilized, reference is the normal nNOS peptide

T1 sequence (P63170 whole entry): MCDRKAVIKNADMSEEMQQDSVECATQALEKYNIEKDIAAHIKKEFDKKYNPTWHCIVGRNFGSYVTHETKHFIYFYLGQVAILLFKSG
T2 sequence (P63170 whole entry): as above
T4 sequence (P63170 whole entry): as above
T3 sequence (P63170 whole entry): as above

CCOc1ccc(N2C(=O)NC(=O)/C(=C\c3ccc(Sc4nc5ccccc5[nH]4)o3)C2=O)cc1 [C24H18N4O5S]
concentration from which insulin secretion is blocked in a dose-dependant fashion ([1]; tested 20-100 μM): ≥ 50 µM
reduction of the insulin response ([1]; molecule 50 μM): 36%
reduction of the insulin response ([1]; molecule 100 μM): 79%

CC[C@H](C)[C@H](N)C(=O)N[C@@H](CC(=O)O)C(=O)N[C@H](C(=O)NCC(=O)N[C@H](C(=O)N[C@@H](CCC(N)=O)C(=O)N[C@H](C(=O)N[C@@H](CC(=O)O)C(=O)N[C@@H](Cc1c[nH]c2ccccc12)C(=O)N[C@@H](CC(=O)O)C(=O)O)C(C)C)[C@@H](C)CC)C(C)C [SEQ ID NO: 4]
inhibition of the binding of the PIN to the nNOS [2]: ≤ 78%
inhibition of the binding of the PIN to the nNOS ([3]; peptide 1 μg/ml): 75%
inhibition of the binding of the PIN to the nNOS ([3]; peptide 10 μg/ml): 98%

KDTGIQVDWD [SEQ ID NO: 3]
Ka (association constant) of PIN for immobilized peptide ([4]; BIAcore, PIN 5-40 μg/ml, global analysis): 1.86×10^8
Kd ([4]; BIAcore, PIN 5-40 μg/ml, global analysis, read-out: Kd (dissociation constant) of PIN for immobilized peptide): 5.38 nM
affinity of the PIN protein for the mutant peptide relative to the normal peptide ([4]; SPR, ratio vs normal peptide): two times greater
inhibition of the binding of the PIN to the nNOS [2]: up to 71%
IC50 ([3]; SPR inhibition curves, FIG. 7D, read-out: inhibition constant (Ki: IC50)): 4000 nM
inhibition of the binding of the PIN to the nNOS ([3]; peptide 5 μg/ml): 59%
inhibition of the binding of the PIN to the nNOS ([3]; peptide 30 μg/ml): 90%
inhibition of the binding of the PIN to the nNOS ([3]; peptide 40 μg/ml): 91%

IDVGIQVDWD (Synthetic 10-mer) [mutant nNOS peptide represented by sequence SEQ ID NO: 4 (Ile-Asp-Val-Gly-Ile-Gln-Val-Asp-Trp-Asp)]
IC50 [5]: 400 nM
IC50 [6]: 500 nM
percent inhibition of PIN-nNOS binding [7]: 78%

B1: mutant nNOS peptide represented by sequence SEQ ID NO: 3 (Lys-Asp-Thr-Gly-Ile-Gln-Val-Asp-Trp-Asp) (peptide)
peptide: KDTGIQVDWD
notes: Synthetic 10-mer; It differs from the normal peptide by Arg to Trp at position 9
IC50 [6]: 5000 nM
fold affinity against the normal peptide [8]: 2 fold
percent inhibition of PIN-nNOS binding [7]: 71%

B2: normal (non-mutant) nNOS peptide Lys Asp Thr Gly Ile Gln Val Asp Arg Asp (nNOS amino acids 229-238) (peptide)
peptide: KDTGIQVDRD
notes: Made by Fmoc solid phase synthesis; also called normal peptide; normal nNOS peptide
IC50 [6]: 300000 nM
percent inhibition of PIN-nNOS binding [7]: 14%
